Reference: patent publication US8809550B2, “Androgen receptor antagonists and uses thereof” (priority 2009, dated 2014)

Tests used:
[1] = tested on: Prostate-specific Antigen (PSA) production in LNCaP cells; experiment: PSA assay: inhibition of PSA production in LNCaP cells (ELISA); assay type: cell-based; details: Homo sapiens; for IC50: 72 h, R1881 1 ng/ml, three days, seven point assay
Procedure: (§1) PSA Assay (Inhibition Test of the Compound of the Present Invention on Prostate-Specific Antigen (PSA) Production in Various Prostate Cancer Cells)
(§2) Androgen dependent LNCaP and 22RV1 cells were purchased from the American Type Culture Collection (ATCC, Manassas, Va.). These cells were grown in RPMI 1640 medium supplemented with 10% fetal bovine serum (FBS), 100 U/mL penicillin, 100 μg/mL streptomycin, and 0.25 μg/mL amphotericin B. The cells were maintained at 37° C. and 5% CO2. LNCaP cells between passage 20 and 35, and 22RV1 cells between passage 30 and 50 were used for experiments. LNCaP is a hormone sensitive cell line, while 22RV1 is a hormone refractory prostate cancer cell line, which derived from a primary prostate tumor. This cell line was isolated from a xenograft (CWR22R-2152) that was serially propagated in mice after castration-induced regression and relapse of the parental, androgen-dependent CWR xenograft. For the PSA assay, human prostate cancer cells LNCaP or 22RV1 were seeded in a 96-well plate at a concentration of 5000 cells/100 μl/well. On the following day, Methyltrienolone (R1881, AR agonist) (final concentration 1 ng/ml), test compounds or bicalutamide (Casodex®, AstraZeneca) (final concentration 0.005 to 20 μM) were added. Three days after the addition, the concentration of PSA in the supernatant of the culture solution was measured by ELISA. ELISAs for human PSA in culture medium were performed using the ultra-sensitive assay procedure and reagents in the Active™ PSA assay kit (Diagnostic Systems Laboratories Inc., Webster, Tex.). Culture medium and standards (200 μl/well) were incubated in antibody-coated plates for 2 h at room temperature on a Titer plate shaker at 500-600 rpm. Wells were then washed five times. The HRP conjugate was diluted 1:20 with assay buffer, and 100 μl was added to all wells. The plates were incubated for 30 min at room temperature on the shaker and washed as before, and 100 μl TMB (3,3′,5,5′-tetramethylbenzidine, 0.4 g/l) was added. The plates were incubated for 10 min on the shaker, and the reaction was terminated with 100 μl stop solution. The plates were read using a plate reader at 450 nm with a 650 nm reference filter. PSA levels were normalized for differences in growth of LNCaP or 22RV1 cells following various treatments as determined by the MTS assay. IC50 of PSA was calculated based on a seven point assay (concentrations of tested compound) and expressed as micromolar (uM). Results on 22RV1 cells are shown as percent inhibition at 2 micromolar (uM). ND means not determined

[2] = tested on: Prostate-specific Antigen (PSA) production in 22RV1 cells; experiment: PSA assay: inhibition of PSA production in 22RV1 cells (ELISA); assay type: cell-based; details: Homo sapiens, 72 h, R1881 1 ng/ml, three days
Procedure: as §1
as §2, with “Results on 22RV1 cells are shown as percent inhibition at 2 micromolar (uM).” left out

[3] = tested on: LNCaP cells; experiment: Cell viability assay, LNCaP cells; assay type: cell-based; details: Homo sapiens; LNCaP cells, 2.5 uM, R1881 1 ng/ml, 48-hour; read-out: Inhibition of cell viability, LNCaP % inhibition at 2.5 uM
Procedure: (§3) LNCaP and 22RV1 cells were maintained in RPMI 1640 medium supplemented with 10% fetal bovine serum (FBS), 100 U/mL penicillin, 100 μg/mL streptomycin, and 0.25 μg/mL amphotericin B, splitting cells when they reached 80-90% confluence. In order to test compounds, 10,000 cells/well were plated in 96 cell culture plates using 100 ul/well plating medium, cultured overnight at 37° C. in a cell culture incubator. After carefully remove plating medium, 80 ul/well of pre-warmed assay medium was added, followed by adding 10 ul/well test compounds or bicalutamide (final concentration from 20 uM to 0.1 uM), incubated at 37° C. for 30 minutes, then adding 10 ul/well freshly prepared Methyltrienolone (R1881, AR agonist) (final concentration 1 ng/ml) to each well, incubate at 37° C. for 48-hour. At the end of incubation, 20 μl MTT (2.5 mg/ml in PBS) was added to each well, and the cells were further incubated for 2 h at 37 C to allow a complete reaction between the dye and the enzyme mitochondrial dehydrogenase in the viable cells. After removal of the residual dye and medium, 100 μl dimethylsulfoxide was added to each well, and the absorbance at 570 nm was measured with an microplate reader. The fold induction over background by 1 nM R1881 in the absence of test compounds is standardized as 100% and experimental result is expressed as percentage of inhibition by testing compounds at 2.5 micromolar (uM).

[4] = tested on: 22RV1 cells; experiment: Cell viability assay, 22RV1 cells; assay type: cell-based, human; details: 22RV1 cells, 2.5 uM, R1881 1 ng/ml, 48-hour
Procedure: as §3

| SMILES | IC50 [1] [nM] | inhibition at 2 µM [2] [%] | also measured |
| --- | --- | --- | --- |
| CC(O)(CS(=O)(=O)c1ccc(F)cc1)C(=O)Nc1ccc(C#N)c(C(F)(F)F)c1 (stereo not drawn) [Bicalutamide, bicalutamide, reference compound] | 3100 | 18 | inhibition at 1 µM ([1]; 1 micromolar (summary text b205)): 34%; cytotoxicity at 2.5 µM [3]: 21%; Inhibition of cell viability, 22RV1 % inhibition at 2.5 uM [4]: <10%; cytotoxicity at 2.5 µM ([4]; Homo sapiens, read-out: Inhibition of cell viability, 22RV1 % inhibition at 2.5 uM): < 10% |
| CNC(=O)c1ccc(N2C(=S)N(c3cc(F)c(C#N)cc3F)C(=O)C23CCC3)cc1F [Example 3, 4-[7-(4-Cyano-2,5-difluoro-phenyl)-8-oxo-6-thioxo-5,7-diaza-spiro[3.4]oct-5-yl]-2-fluoro-N-methyl-benzamide] | 2100 | 21 | – |
| CNC(=O)c1ccc(N2C(=S)N(c3ccc(C#N)cc3OC(F)(F)F)C(=O)C23CCC3)cc1F [Example 4, 4-[7-(4-Cyano-2-trifluoromethoxy-phenyl)-8-oxo-6-thioxo-5,7-diaza-spiro[3.4]oct-5-yl]-2-fluoro-N-methyl-benzamide] | 1400 | – | – |
| CNC(=O)c1ccc(N2C(=S)N(c3ccc(C#N)cc3F)C(=O)C23CCC3)cc1F [Example 5, 4-[7-(4-Cyano-2-fluoro-phenyl)-8-oxo-6-thioxo-5,7-diaza-spiro[3.4]oct-5-yl]-2-fluoro-N-methyl-benzamide] | 1400 | – | – |
| CNC(=O)c1ccc(N2C(=S)N(c3ccc(C#N)cc3C)C(=O)C23CCC3)cc1F [Example 6, 4-[7-(4-Cyano-2-methyl-phenyl)-8-oxo-6-thioxo-5,7-diaza-spiro[3.4]oct-5-yl]-2-fluoro-N-methyl-benzamide] | 1500 | – | – |
| CNC(=O)c1ccc(N2C(=S)N(c3ccc(C#N)cc3C(F)(F)F)C(=O)C23CCC3)cc1F [Example 7, 4-[7-(4-Cyano-2-trifluoromethyl-phenyl)-8-oxo-6-thioxo-5,7-diaza-spiro[3.4]oct-5-yl]-2-fluoro-N-methyl-benzamide] | 1500 | – | – |
| CNC(=O)c1ccc(N2C(=S)N(c3ccc(C#N)c(C#N)c3)C(=O)C23CCC3)cc1F [Example 9, 4-[7-(3,4-Dicyano-phenyl)-8-oxo-6-thioxo-5,7-diaza-spiro[3.4]oct-5-yl]-2-fluoro-N-methyl-benzamide] | 980 | 64 | – |
| CC1(C)C(=O)N(c2ccc(C#N)c(C(F)(F)F)c2F)C(=S)N1c1ccc(S(C)(=O)=O)cc1 [Example 13, 3-Fluoro-4-[3-(4-methanesulfonyl-phenyl)-4,4-dimethyl-5-oxo-2-thioxo-imidazolidin-1-yl]-2-trifluoromethyl-benzonitrile] | 520 | 61 | – |
| CC1(C)C(=O)N(c2ccc(C#N)c(C(F)(F)F)c2F)C(=S)N1c1ccc(C#N)cc1 [Example 14, 4-(4,4-Dimethyl-5-oxo-2-thioxo-3-p-cyanophenyl-imidazolidin-1-yl)-3-fluoro-2-trifluoromethyl-benzonitrile] | 490 | 71 | – |
| Cc1ccc(N2C(=S)N(c3ccc(C#N)c(C(F)(F)F)c3F)C(=O)C2(C)C)cn1 [Example 15, 4-[4,4-Dimethyl-3-(6-methyl-pyridin-3-yl)-5-oxo-2-thioxo-imidazolidin-1-yl]-3-fluoro-2-trifluoromethyl-benzonitrile] | 350 | 69 | – |
| CC1(C)C(=O)N(c2ccc(C#N)c(Cl)c2F)C(=S)N1c1ccc(S(C)(=O)=O)cc1 [Example 16, 2-Chloro-3-fluoro-4-[3-(4-methanesulfonyl-phenyl)-4,4-dimethyl-5-oxo-2-thioxo-imidazolidin-1-yl]-benzonitrile] | 630 | 70 | – |
| Cc1ccc(N2C(=S)N(c3ccc(C#N)c(Cl)c3F)C(=O)C2(C)C)cn1 [Example 17, 2-Chloro-4-[4,4-dimethyl-3-(6-methyl-pyridin-3-yl)-5-oxo-2-thioxo-imidazolidin-1-yl]-3-fluoro-benzonitrile] | 310 | 76 | – |
| COc1c(C#N)ccc(N2C(=O)C(C)(C)N(c3ccc(S(C)(=O)=O)cc3)C2=S)c1F [Example 21, 3-Fluoro-4-[3-(4-methanesulfonyl-phenyl)-4,4-dimethyl-5-oxo-2-thioxo-imidazolidin-1-yl]-2-methoxy-benzonitrile] | 1800 | – | – |
| CNC(=O)c1ccc(N2C(=S)N(c3ccc(C#N)c(OC)c3F)C(=O)C2(C)C)cc1F [Example 22, 4-[3-(4-Cyano-2-fluoro-3-methoxy-phenyl)-5,5-dimethyl-4-oxo-2-thioxo-imidazolidin-1-yl]-2-fluoro-N-methyl-benzamide] | 520 | 57 | – |
| Cc1ccc(N2C(=S)N(c3ccc(C#N)c(C#N)c3)C(=O)C2(C)C)cc1F [Example 25, 4-[3-(3-Fluoro-4-methyl-phenyl)-4,4-dimethyl-5-oxo-2-thioxo-imidazolidin-1-yl]-phthalonitrile] | 290 | 82 | – |
| Cc1ccc(N2C(=S)N(c3ccc(C#N)c(Cl)c3F)C(=O)C2(C)C)cc1 [Example 29, 2-Chloro-4-(4,4-dimethyl-5-oxo-2-thioxo-3-p-tolyl-imidazolidin-1-yl)-3-fluoro-benzonitrile] | 280 | 78 | – |
| Cc1ccc(N2C(=S)N(c3ccc(C#N)c(Cl)c3F)C(=O)C2(C)C)cc1F [Example 31, 2-Chloro-3-fluoro-4-[3-(3-fluoro-4-methyl-phenyl)-4,4-dimethyl-5-oxo-2-thioxo-imidazolidin-1-yl]-benzonitrile] | 420 | 67 | – |
